# Results reported in PMC2707616, “Platensimycin Activity against Mycobacterial β-Ketoacyl-ACP Synthases” (PLoS ONE, 2009).
# Where two headings read alike, the source gives them in different places.
# Key:
# KasA = settings: cited from earlier work
# KasB = KasB ref 25; cited from earlier work
# S. aureus FabH = system: S. aureus FabH; design: method as in PMID 17456595; settings: S. aureus FabH ref 2; cited from earlier work
# Mt-FabH = molecular target: T1, Mt-FabH (Mycobacterium tuberculosis, UniProt P9WNG3); assay: biochemical
# T1 construct: made in house
# T1 sequence (P9WNG3 whole entry): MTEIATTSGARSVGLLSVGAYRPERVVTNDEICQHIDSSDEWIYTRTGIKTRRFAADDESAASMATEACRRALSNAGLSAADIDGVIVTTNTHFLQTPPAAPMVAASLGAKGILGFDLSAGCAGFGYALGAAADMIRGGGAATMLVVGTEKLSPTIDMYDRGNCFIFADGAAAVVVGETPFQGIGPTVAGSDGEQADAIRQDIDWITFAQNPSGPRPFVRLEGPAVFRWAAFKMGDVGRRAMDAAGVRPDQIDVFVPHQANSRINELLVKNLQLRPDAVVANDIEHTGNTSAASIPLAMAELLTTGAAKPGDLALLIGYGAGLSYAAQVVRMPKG
# rat FAS-I = system: rat FAS-I; design: method as in earlier work; settings: cited from earlier work
# Candida albicans = system: Candida albicans; design: method as in PMID 16710421; settings: cited from earlier work
# M. smegmatis pVV16- KasB = assay: microbe, parasite or virus in culture; assay type: cell-based, Mycobacterium smegmatis
# C. glutamicum = assay: Growth of cultures; assay type: cell-based; settings: data not shown
# Mt-KasA = molecular target: T2, Mt-KasA (Mycobacterium tuberculosis, UniProt P9WQD9); assay: biochemical
# T2 construct: made in house
# T2 sequence (P9WQD9 whole entry): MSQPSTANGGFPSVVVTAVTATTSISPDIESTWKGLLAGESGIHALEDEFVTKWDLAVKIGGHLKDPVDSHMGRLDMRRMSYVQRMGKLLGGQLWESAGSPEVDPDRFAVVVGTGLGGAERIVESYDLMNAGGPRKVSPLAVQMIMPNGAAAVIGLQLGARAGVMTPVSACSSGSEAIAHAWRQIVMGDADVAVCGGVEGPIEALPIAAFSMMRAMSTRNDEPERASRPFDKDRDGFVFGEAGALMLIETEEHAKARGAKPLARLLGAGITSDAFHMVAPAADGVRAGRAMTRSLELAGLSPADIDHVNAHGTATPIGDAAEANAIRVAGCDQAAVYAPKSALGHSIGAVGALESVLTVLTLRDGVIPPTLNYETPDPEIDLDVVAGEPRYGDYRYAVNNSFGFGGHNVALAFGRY
# M. bovis BCG pVV16- KasA = assay: microbe, parasite or virus in culture; assay type: cell-based; settings: Mycobacterium tuberculosis variant bovis BCG
# Mt-KasB = molecular target: T3, Mt-KasB (Mycobacterium tuberculosis, UniProt P9WQD7); assay: biochemical
# T3 construct: made in house
# T3 sequence (P9WQD7 whole entry): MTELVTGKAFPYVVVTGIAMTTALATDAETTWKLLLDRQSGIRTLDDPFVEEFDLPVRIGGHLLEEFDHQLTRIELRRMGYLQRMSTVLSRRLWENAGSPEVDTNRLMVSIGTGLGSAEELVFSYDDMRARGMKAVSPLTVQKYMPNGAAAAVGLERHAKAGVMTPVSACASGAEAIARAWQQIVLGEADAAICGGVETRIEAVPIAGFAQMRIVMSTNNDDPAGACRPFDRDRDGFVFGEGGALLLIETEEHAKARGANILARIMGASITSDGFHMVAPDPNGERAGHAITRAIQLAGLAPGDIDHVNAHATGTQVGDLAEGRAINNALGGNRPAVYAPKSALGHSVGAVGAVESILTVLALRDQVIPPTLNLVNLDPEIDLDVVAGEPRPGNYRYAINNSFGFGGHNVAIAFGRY
# M. smegmatis mc^2155 [1] = assay type: cell-based, Mycobacterium smegmatis
# M. smegmatis pVV16- KasA = assay: microbe, parasite or virus in culture; assay type: cell-based, Mycobacterium smegmatis
# M. bovis BCG = assay: microbe, parasite or virus in culture; assay type: cell-based
# M. smegmatis pVV16- FabH = assay: microbe, parasite or virus in culture; assay type: cell-based, Mycobacterium smegmatis; settings: Mycolicibacterium smegmatis, PVV16FABH
# M. bovis BCG pVV16 = assay: microbe, parasite or virus in culture; assay type: cell-based; settings: Mycobacterium tuberculosis variant bovis BCG
# M. tuberculosis H37Rv = assay: microbe, parasite or virus in culture; assay type: cell-based; settings: Mycobacterium tuberculosis, solid medium
# M. bovis BCGΔ KasB = assay type: cell-based, Mycobacterium bovis BCG
# Cg-FAS-I = assay: FAS-I activity in crude cell free extracts; assay type: biochemical, C. glutamicum; settings: crude cell free extract, standard error in brackets
# Procedure: FAS-I extracts from M. smegmatis and C. glutamicum were prepared as described previously. FAS-I experiments were conducted as described using the 40–80% ammonium sulfate fraction. Briefly, platensimycin was titred (0.1–150 µg/ml) into the standard reaction as follows: 100 mM potassium phosphate pH 7.0, 5 mM EDTA, 5 mM dithiothreitol, 300 µM acetyl-CoA, 100 µM NADPH, 100 µM NADH, 1 µM flavin mononucleotide, 500 µM α-cyclodextrin, 20 µM malonyl-CoA, 100,000 cpm of [2-^14C] malonyl-CoA, and 100 µl of the cytosolic enzyme preparation (1 mg of protein) in a total volume of 500 µl. Reactions were performed in triplicate at 37°C for 1 h and terminated by the addition of 500 µl of 20% potassium hydroxide in 50% methanol at 100°C for 30 min. Following acidification with 300 µl of 6 M HCl, the resultant [^14C]-labelled fatty acids were extracted three times with petroleum ether. The organic extracts were pooled, washed once with an equal volume of water, and dried in a scintillation vial prior to scintillation counting using 5 ml of EcoScintA (National Diagnostics, Hull, U.K.).
# human FAS-I = system: human FAS-I; design: method as in earlier work; settings: cited from earlier work
# M. bovis BCG pVV16- KasB = assay: microbe, parasite or virus in culture; assay type: cell-based; settings: Mycobacterium tuberculosis variant bovis BCG
# M. smegmatis mc^2155 [2] = assay: MIC99 by Alamar Blue testing, liquid medium; assay type: cell-based, Mycobacterium smegmatis; settings: Mycolicibacterium smegmatis
# M. smegmatis = assay: Growth and viable count (CFU) of cultures over 72 h, revival after washing; assay type: cell-based, Mycobacterium smegmatis
# M. tuberculosis CDC1551 = assay: microbe, parasite or virus in culture; assay type: cell-based; settings: Mycobacterium tuberculosis; M. tuberculosis CDC1551, solid medium
# M. smegmatis pVV16 = assay: MIC99 by Alamar Blue testing, vector control strain; assay type: cell-based, Mycobacterium smegmatis; settings: Mycolicibacterium smegmatis
# [3] = system: M. smegmatis pVV16- KasAB; assay: microbe, parasite or virus in culture; assay type: cell-based, Mycobacterium smegmatis; settings: Mycolicibacterium smegmatis, PVV16KASAB
# HeLa = settings: mammalian cell toxicity ref 3; cited from earlier work
compound,measurement,setting,value
"C=C/C(C)=C/[C@@]1(C)SC(=O)C(C)=C1O [TLM, thiolactomycin]",IC50,KasA,20 µM
same,IC50,KasB,90 µM
C=C1C[C@@]23C=CC(=O)[C@@](C)(CCC(=O)Nc4c(O)ccc(C(=O)O)c4O)[C@@H]2C[C@@H]1CC3 [platencin],IC50,S. aureus FabH,9.17 µM
CC12C[C@@]34C=CC(=O)[C@@](C)(CCC(=O)Nc5c(O)ccc(C(=O)O)c5O)C3[C@H](CC1C4)O2 (stereo partly drawn) [platensimycin],IC50,Mt-FabH,> 340 µM
same,rat FAS-I inhibition in vitro,rat FAS-I,inhibited
same,antifungal activity against Candida albicans,Candida albicans,> 64 µg/mL
same,increase in the MIC on Mt-KasB overexpression,M. smegmatis pVV16- KasB; MIC to 124 µg/ml,9 fold
same,MIC99,"M. smegmatis pVV16- KasB; Mycolicibacterium smegmatis, PVV16KASB, M. smegmatis pVV16- KasB",124 µg/mL
same,growth of cultures of C. glutamicum,C. glutamicum,failed to inhibit growth
same,IC50,Mt-KasA,4.53 µM
same,IC50,Mt-KasA; standard error in brackets,4.53 µM
same,MIC99,M. bovis BCG pVV16- KasA,> 128 µg/mL
same,IC50,Mt-KasB,9.51 µM
same,IC50,Mt-KasB; standard error in brackets,9.51 µM
same,Biosynthesis of fatty acids and α- and epoxy-mycolic acids,"M. smegmatis mc^2155 [1]; 20–40 µg/ml, [14C]acetate labelling",significantly inhibited
same,α′-MAMEs level,"M. smegmatis mc^2155 [1]; lower concentrations, 10–20 µg/ml",accumulation
same,synthesis of mycolate containing lipids GMM and TDM,"M. smegmatis mc^2155 [1]; platensimycin-treated cultures, 20-40 µg/ml",reduced
same,increase in resistance (MIC) on Mt-KasA overexpression,M. smegmatis pVV16- KasA; MIC from 14 to 30 µg/ml,2 fold
same,MIC99,"M. smegmatis pVV16- KasA; Mycolicibacterium smegmatis, PVV16KASA, M. smegmatis pVV16- KasA",30 µg/mL
same,MIC99,M. bovis BCG,>128 µg/mL
same,MIC99,"M. bovis BCG; Mycobacterium tuberculosis variant bovis BCG, read-out: MIC99",> 128 µg/mL
same,MIC99,M. smegmatis pVV16- FabH,16 µg/mL
same,MIC99,M. bovis BCG pVV16,> 128 µg/mL
same,MIC99,M. tuberculosis H37Rv,12 µg/mL
same,MIC99,M. bovis BCGΔ KasB,61 µg/mL
same,IC50,Cg-FAS-I,6.5 (0.2) µg/ml
same,IC50,S. aureus FabH,67 µM
same,human FAS-I inhibition in vitro,human FAS-I,inhibited
same,MIC99,M. bovis BCG pVV16- KasB,> 128 µg/mL
same,MIC99,M. smegmatis mc^2155 [2],14 µg/mL
same,decrease in CFU,"M. smegmatis; 14 µg/ml platensimycin, 72 hours, LB broth",2 log
same,nature of the antibiotic effect (revival after washing and re-inoculation),M. smegmatis; cells exposed for 72 hours,bacteristatic
same,MIC99,M. tuberculosis CDC1551,12 µg/mL
same,MIC99,M. smegmatis pVV16,14 µg/mL
same,MIC99,[3],126 µg/mL
same,IC50 of HeLa MTT,HeLa,> 1000 µg/mL
